Measurements published in patent publication US20230192720A1, “MACROCYCLIC COMPOUNDS” (ZENO MANAGEMENT, INC., priority 2019, published 2023).

Test system: NCI-H929 cells
Assay: NCI-H929 cell proliferation assay (CellTiter-Glo)
Format: cell-based
Settings: 72 h compound treatment
Experimental: NCI-H929 Cell Proliferation Assay
Cell proliferation was measured using the CellTiter-Glo® Luminescent Cell Viability Assay. The assay involved the addition of a single reagent (CellTiter-Glo® Reagent) directly to cells cultured in serum-supplemented medium. NCI-H929 (ATCC CRL-9068) cells were cultured according to ATCC recommendations and were seeded at 3,000 cells per well.
Each compound evaluated was prepared as a DMSO stock solution (10 mM). Compounds were tested in duplicate on each plate, with a 10-point serial dilution curve (1:3 dilution). Compound treatment ([…]) was added from the compound dilution plate to the cell plate. The highest compound concentration was 10 μM (final), with a 0.1% final DMSO concentration. Plates were then incubated at 37° C., 5% CO2. After 72 h of compound treatment, cell plates were equilibrated at rt for approximately 30 mins. An equi-volume amount of CellTiter-Glo® Reagent (40 μL) was added to each well. Plates were mixed for 2 mins on an orbital shaker to induce cell lysis and then incubated at rt for 10 mins to stabilize the luminescent signal. Luminescence was recorded using an Envision plate reader according to CellTiter-Glo protocol. IC50 of each compound was calculated using GraphPad Prism by nonlinear regression analysis.

Row | IC50 | IC50 (Homo sapiens, NCI-H929, 72 h) | Structure (SMILES)
1 | 100 to 1000 nM | – | Cn1nc2cc1CSc1cc3c(c(c1)OCCCc1c(C(=O)O)n(C)c4c(c(Cl)ccc14)-c1c(nn4c1CCCC4)CNC2)NCCC3 (atropisomer, axis not shown) [Example 12B, (Sa)-(−)-(Z)-1^6-Chloro-1^1,6^1-dimethyl-2^4,2^5,2^6,2^7,9^1,9^2,9^3,9^4-octahydro-1^1H,6^1H-10-oxa-8-thia-4-aza-9(6,8)-quinolina-2(3,2)-pyrazolo[1,5-a]pyridina-1(7,3)-indola-6(3,5)-pyrazolacyclotridecaphane-1^2-carboxylic acid]
2 | 100 to 1000 nM | – | Cn1nc2cc1CSc1cc3c(c(c1)OCCCc1c(C(=O)O)n(C)c4c(c(F)ccc14)-c1c(nn4c1CCCC4)CSC2)NCCC3 (atropisomer, axis not shown; (Sa)) [Example 8B, (Sa)-(−)-(Z)-1^6-Fluoro-1^1,6^1-dimethyl-2^4,2^5,2^6,2^7,9^1,9^2,9^3,9^4-octahydro-1^1H,6^1H-10-oxa-4,8-dithia-9(6, 8)-quinolina-2(3,2)-pyrazolo[1,5-a]pyridina-1(7,3)-indola-6(3,5)-pyrazolacyclotridecaphane-1^2-carboxylic acid]
3 | – | ≥ 1000 nM | CN1CCCc2cc3cc(c21)OCCCc1c(C(=O)O)n(C)c2c(c(Cl)ccc12)-c1c(nn2c1CCC2)CSCc1cc(n(C)n1)CS3 (atropisomer, axis not shown; (Ra)) [Example 13A, (Ra)-(+)-(Z)-1^6-Chloro-1^1,6^1,9^1-trimethyl-2^5,2^6,9^1,9^2,9^3,9^4-hexahydro-1^1H,2^4H,6^1H-10-oxa-4,8-dithia-9(6,8)-quinolina-1(7,3)-indola-2(3,2)-pyrrolo[1,2-b]pyrazola-6(3,5)-pyrazolacyclotridecaphane-1^2-carboxylic acid]
4 | ≥ 1000 nM | – | Cn1nc2cc1CSc1cc3c(c(c1)OCCCc1c(C(=O)O)n(C)c4c(c(Cl)ccc14)-c1c(nn4c1CCCC4)CNC2)NCCC3 (atropisomer, axis not shown; (Ra)) [Example 12A, (Ra)-(+)-(Z)-1^6-Chloro-1^1,6^1-dimethyl-2^4,2^5,2^6,2^7,9^1,9^2,9^3,9^4-octahydro-1^1H,6^1H-10-oxa-8-thia-4-aza-9(6,8)-quinolina-2(3,2)-pyrazolo[1,5-a]pyridina-1(7,3)-indola-6(3,5)-pyrazolacyclotridecaphane-1^2-carboxylic acid]
5 | ≤ 100 nM | – | Cc1nn(C23CC(C2)C3)c2c1-c1c(F)ccc3c(c(C(=O)O)n(C)c13)CCCOc1cc(cc3c1NCCC3)SCc1cc(nn1C)CSC2 (atropisomer, axis not shown; (Sa)) [Example 10B, (Sa)-(−)-(Z)-2^1-(Bicyclo[1.1.1]pentan-1-yl)-1^6-fluoro-1^1,2^3,6^1-trimethyl-9^1,9^2,9^3,9^4-tetrahydro-1^1H,2^1H,6^1H-10-oxa-4,8-dithia-9(6,8)-quinolina-1(7,3)-indola-2(4,5),6(3,5)-dipyrazolacyclotridecaphane-1^2-carboxylic acid]
6 | ≥ 1000 nM | – | CN1Cc2cc(n(C)n2)CSc2cc3c(c(c2)OCCCc2c(C(=O)O)n(C)c4c(c(Cl)ccc24)-c2c(nn4c2CCCC4)C1)NCCC3 (atropisomer, axis not shown; (Ra)) [Example 4A, (Ra)-(+)-(Z)-1^6-Chloro-1^1,6^1,4-trimethyl-2^4,2^5,2^6,2^7,9^1,9^2,9^3,9^4-octahydro-1^1H,6^1H-10-oxa-8-thia-4-aza-9(6,8)-quinolina-2(3,2)-pyrazolo[1,5-a]pyridina-1(7,3)-indola-6(3,5)-pyrazolacyclotridecaphane-1^2-carboxylic acid]
7 | – | 100 to 1000 nM | Cn1nc2cc1CSc1cc3c(c(c1)OCCCc1c(C(=O)O)n(C)c4c(c(F)ccc14)-c1c(nn4c1CCC4)CSC2)NCCC3 (atropisomer, axis not shown; (Ra)) [Example 7A, (Ra)-(+)-(Z)-1^6-Fluoro-1^1,6^1-dimethyl-2^5,2^6,9^1,9^2,9^3,9^4-hexahydro-1^1H,2^4H,6^1H-10-oxa-4,8-dithia-9(6,8)-quinolina-1(7,3)-indola-2(3,2)-pyrrolo[1,2-b]pyrazola-6(3,5)-pyrazolacyclotridecaphane-1^2-carboxylic acid]
8 | – | ≥ 1000 nM | Cn1nc2cc1CSc1cc3c(c(c1)OCCCc1c(C(=O)O)n(C)c4c(c(Cl)ccc14)-c1c(nn4c1CCC4)CSC2)NCCC3 (atropisomer, axis not shown; (Sa)) [Example 1B, (Sa)-(−)-(Z)-1^6-Chloro-1^1,6^1-dimethyl-2^5,2^6,9^1,9^2,9^3,9^4-hexahydro-1^1H,2^4H,6^1H-10-oxa-4,8-dithia-9(6,8)-quinolina-1(7,3)-indola-2(3 ,2)-pyrrolo[1,2-b]pyrazola-6(3,5)-pyrazolacyclotridecaphane-1^2-carboxylic acid]
9 | – | ≤ 100 nM | Cc1c2c(nn1C)CSCc1cc(n(C)n1)CSc1cc(c3ccccc3c1)OCCCc1c(C(=O)O)n(C)c3c-2c(Cl)ccc13 [AZD5991, reference compound]
10 | ≥ 1000 nM | – | Cc1nn(C23CC(C2)C3)c2c1-c1c(Cl)ccc3c(c(C(=O)O)n(C)c13)CCCOc1cc(cc3c1NCCC3)SCc1cc(nn1C)CSC2 (atropisomer, axis not shown; (Ra)) [Example 9A, (Ra)-(+)-(Z)-2^1-(Bicyclo [1.1.1]pentan-1-yl)-1^6-chloro-1^1,2^3,6^1-trimethyl-9^1,9^2,9^3,9^4-tetrahydro-1^1H,2^1H,6^1H-10-oxa-4,8-dithia-9(6,8)-quinolina-1(7,3)-indola-2(4,5),6(3,5)-dipyrazolacyclotridecaphane-1^2-carboxylic acid]
11 | ≥ 1000 nM | – | Cc1nn(C23CC(C2)C3)c2c1-c1c(F)ccc3c(c(C(=O)O)n(C)c13)CCCOc1cc(cc3c1NCCC3)SCc1cc(nn1C)CSC2 (atropisomer, axis not shown; (Ra)) [Example 10A, (Ra)-(+)-(Z)-2^1-(Bicyclo[1.1.1]pentan-1-yl)-1^6-fluoro-1^1,2^3,6^1-trimethyl-9^1,9^2,9^3,9^4-tetrahydro-1^1H,2^1H,6^1H-10-oxa-4,8-dithia-9(6,8)-quinolina-1(7,3)-indola-2(4,5),6(3,5)-dipyrazolacyclotridecaphane-1^2-carboxylic acid]
12 | ≥ 1000 nM | – | CCn1nc(C)c2c1CSCc1cc(n(C)n1)CSc1cc3c(c(c1)OCCCc1c(C(=O)O)n(C)c4c-2c(Cl)ccc14)NCCC3 (atropisomer, axis not shown; (Sa)) [Example 14B, (Sa)-(−)-(Z)-1^6-Chloro-2^1-ethyl-1^1,2^3,6^1-trimethyl-9^1,9^2,9^3,9^4-tetrahydro-1^1H,2^1H,6^1H-10-oxa-4,8-dithia-9(6,8)-quinolina-1(7,3)-indola-2(4,5),6(3,5)-dipyrazolacyclotridecaphane-1^2-carboxylic acid]
13 | ≤ 100 nM | – | Cc1nn(C23CC(C2)C3)c2c1-c1c(Cl)ccc3c(c(C(=O)O)n(C)c13)CCCOc1cc(cc3c1NCCC3)SCc1cc(nn1C)CSC2 (atropisomer, axis not shown; (Sa)) [Example 9B, (Sa)-(−)-(Z)-2^1-(Bicyclo[1.1.1]pentan-1-yl)-1^6-chloro-1^1,2^3,6^1-trimethyl-9^1,9^2,9^3,9^4-tetrahydro-1^1H,2^1H,6^1H-10-oxa-4,8-dithia-9(6,8)-quinolina-1(7,3)-indola-2(4,5),6(3,5)-dipyrazolacyclotridecaphane-1^2-carboxylic acid]
14 | – | ≥ 1000 nM | Cn1nc2cc1CSc1cc3c(c(c1)OCCCc1c(C(=O)O)n(C)c4c(c(Cl)ccc14)-c1c(nn4c1CCCC4)CSC2)NCCC3 (atropisomer, axis not shown; (Sa)) [Example 2B, (Sa)-(−)-(Z)-1^6-Chloro-1^1,6^1-dimethyl-2^4,2^5,2^6,2^7,9^1,9^2,9^3,9^4-octahydro-1^1H,6^1H-10-oxa-4,8-dithia-9(6,8)-quinolina-2(3,2)-pyrazolo[1,5-a]pyridina-1(7,3)-indola-6(3,5)-pyrazolacyclotridecaphane-1^2-carboxylic acid]
15 | – | 100 to 1000 nM | CO[C@H]1/C=C/C[C@H](C)[C@@H](C)S(=O)(=O)NC(=O)c2ccc3c(c2)N(C[C@@H]2CC[C@H]21)C[C@@]1(CCCc2cc(Cl)ccc21)CO3 [AMG176, reference compound]
16 | ≤ 100 nM | – | CN1Cc2cc(n(C)n2)CSc2cc3c(c(c2)OCCCc2c(C(=O)O)n(C)c4c(c(Cl)ccc24)-c2c(nn4c2CCC4)C1)NCCC3 (atropisomer, axis not shown; (Sa)) [Example 3B, (Sa)-(−)-(Z)-1^6-Chloro-1^1,6^1,4-trimethyl-2^5,2^6,9^1,9^2,9^3,9^4-hexahydro-1^1H,2^4H,6^1H-10-oxa-8-thia-4-aza-9(6,8)-quinolina-1(7,3)-indola-2(3,2)-pyrrolo[1,2-b]pyrazola-6(3,5)-pyrazolacyclotridecaphane-1^2-carboxylic acid]
17 | ≥ 1000 nM | – | CN1Cc2cc(n(C)n2)CSc2cc3c(c(c2)OCCCc2c(C(=O)O)n(C)c4c(c(Cl)ccc24)-c2c(nn4c2CCC4)C1)NCCC3 (atropisomer, axis not shown; (Ra)) [Example 3A, (Ra)-(+)-(Z)-1^6-Chloro-1^1,6^1,4-trimethyl-2^5,2^6,9^1,9^2,9^3,9^4-hexahydro-1^1H,2^4H,6^1H-10-oxa-8-thia-4-aza-9(6,8)-quinolina-1(7,3)-indola-2(3,2)-pyrrolo[1,2-b]pyrazola-6(3,5)-pyrazolacyclotridecaphane-1^2-carboxylic acid]
